Experiment: logP by HPLC on reversed-phase column (C 18), EEC Directive 79/831 Annex V.A8
Assay type: physicochemical
Details: C 18, 40° C., 0.1% aqueous formic acid and acetonitrile gradient
Method: Temperature: 40° C.; Mobile phases: 0.1% aqueous formic acid and acetonitrile; linear gradient from 10% acetonitrile to 90% acetonitrile.
Calibration was carried out using unbranched alkan-2-ones (comprising 3 to 16 carbon atoms) with known logP values (determination of the logP values by the retention times using linear interpolation between two successive alkanones).

With `O=C(c1ccco1)N(Cc1ncc(C(F)(F)F)cc1Cl)C1CC1` [Compound 1] as the compound, how does the LogP read?
Its LogP is 3.2.

Which LogP does the source give for `CC(c1ncc(C(F)(F)F)cc1Cl)N(C(=O)c1ccco1)C1CC1` (centres unmarked) [Compound 2] here?
The LogP was 3.6.

Which LogP does the source give for `Cc1ccoc1C(=O)N(Cc1ncc(C(F)(F)F)cc1Cl)C1CC1` [Compound 3] here?
Its LogP is 3.78.

With `Cc1ccoc1C(=O)N(C1CC1)C(C)c1ncc(C(F)(F)F)cc1Cl` (centres unmarked) [Compound 4] as the compound, how does the LogP read?
The LogP was 4.22.

With `Cc1cc(C(=O)N(Cc2ncc(C(F)(F)F)cc2Cl)C2CC2)c(C(F)(F)F)o1` [Compound 6] as the compound, how does the LogP read?
The LogP was 4.26.

Which LogP does the source give for `Cc1cc(C(=O)N(C2CC2)C(C)c2ncc(C(F)(F)F)cc2Cl)c(C(F)(F)F)o1` (centres unmarked) [Compound 7] here?
The LogP was 5.19.

With `Cc1occc1C(=O)N(Cc1ncc(C(F)(F)F)cc1Cl)C1CC1` [Compound 8] as the compound, how does the LogP read?
Its LogP is 3.

With `CC(c1ncc(C(F)(F)F)cc1Cl)N(C(=O)c1sccc1I)C1CC1` (centres unmarked) [Compound 12] as the compound, how does the LogP read?
Its LogP is 5.09.

For `O=C(c1ccsc1I)N(Cc1ncc(C(F)(F)F)cc1Cl)C1CC1` [Compound 15], which LogP is on record?
Its LogP is 4.17.

With `CC(c1ncc(C(F)(F)F)cc1Cl)N(C(=O)c1ccsc1I)C1CC1` (centres unmarked) [Compound 16] as the compound, how does the LogP read?
The LogP was 4.95.

For `Cn1cc(C(=O)N(Cc2ncc(C(F)(F)F)cc2Cl)C2CC2)c(C(F)(F)F)c1` [Compound 17], which LogP is on record?
Its LogP is 3.55.

For `Cc1ncoc1C(=O)N(Cc1ncc(C(F)(F)F)cc1Cl)C1CC1` [Compound 20], which LogP is on record?
The LogP was 2.85.

Which LogP does the source give for `Cc1ncoc1C(=O)N(C1CC1)C(C)c1ncc(C(F)(F)F)cc1Cl` (centres unmarked) [Compound 21] here?
The LogP was 3.22.

For `Cc1nc(C(=O)N(Cc2ncc(C(F)(F)F)cc2Cl)C2CC2)c(C)o1` [Compound 22], which LogP is on record?
Its LogP is 3.11.

For `Cc1nc(C(=O)N(C2CC2)C(C)c2ncc(C(F)(F)F)cc2Cl)c(C)o1` (centres unmarked) [Compound 23], which LogP is on record?
Its LogP is 3.46.

Which LogP does the source give for `Cc1nc(C(F)(F)F)c(C(=O)N(Cc2ncc(C(F)(F)F)cc2Cl)C2CC2)s1` [Compound 25] here?
The LogP was 3.86.

With `Cc1nc(C(F)F)c(C(=O)N(Cc2ncc(C(F)(F)F)cc2Cl)C2CC2)s1` [Compound 26] as the compound, how does the LogP read?
The LogP was 3.41.

For `Cc1nc(C(F)F)c(C(=O)N(C2CC2)C(C)c2ncc(C(F)(F)F)cc2Cl)s1` (centres unmarked) [Compound 27], which LogP is on record?
Its LogP is 4.34.

For `Cc1ncc(C(=O)N(Cc2ncc(C(F)(F)F)cc2Cl)C2CC2)s1` [Compound 29], which LogP is on record?
Its LogP is 3.15.

For `Cc1nc(C(F)(F)F)c(C(=O)N(C2CC2)C(C)c2ncc(C(F)(F)F)cc2Cl)s1` (centres unmarked) [Compound 30], which LogP is on record?
Its LogP is 4.80.

For `Cc1cc(C(=O)N(C2CC2)C(C)c2ncc(C(F)(F)F)cc2Cl)nn1C` (centres unmarked) [Compound 33], which LogP is on record?
Its LogP is 3.15.

With `CC(c1ncc(C(F)(F)F)cc1Cl)N(C(=O)c1cn(C)nc1C(F)F)C1CC1` (centres unmarked) [Compound 35] as the compound, how does the LogP read?
Its LogP is 3.78.

For `Cn1cc(C(=O)N(Cc2cc(C(F)(F)F)cc(Cl)n2)C2CC2)c(C(F)F)n1` [Compound 37], which LogP is on record?
The LogP was 3.1.

With `COc1nn(C)cc1C(=O)N(Cc1ncc(C(F)(F)F)cc1Cl)C1CC1` [Compound 39] as the compound, how does the LogP read?
Its LogP is 2.43.

With `Cn1cc(C(=O)N(Cc2ncc(C(F)(F)F)cc2Cl)C2CC2)c(C(F)(F)F)n1` [Compound 41] as the compound, how does the LogP read?
Its LogP is 3.26.

For `CC(c1ncc(C(F)(F)F)cc1Cl)N(C(=O)c1cn(C)nc1C(F)(F)F)C1CC1` (centres unmarked) [Compound 42], which LogP is on record?
The LogP was 4.01.

Which LogP does the source give for `Cn1cc(C(=O)N(Cc2ncc(C(F)(F)F)cc2Cl)C2CC2)c(I)n1` [Compound 43] here?
The LogP was 2.82.

Which LogP does the source give for `Cc1nn(C)c(F)c1C(=O)N(C1CC1)C(C)c1ncc(C(F)(F)F)cc1Cl` (centres unmarked) [Compound 46] here?
Its LogP is 3.67.

For `CCC(c1cc(C(F)(F)F)cc(Cl)n1)N(C(=O)c1c(C)nn(C)c1F)C1CC1` (centres unmarked) [Compound 47], which LogP is on record?
Its LogP is 2.95.

For `COC(=O)C(c1ncc(C(F)(F)F)cc1Cl)N(C(=O)c1c(C)nn(C)c1F)C1CC1` (centres unmarked) [Compound 48], which LogP is on record?
The LogP was 2.83.

Which LogP does the source give for `Cc1nn(C)cc1C(=O)N(Cc1ncc(C(F)(F)F)cc1Cl)C1CC1` [Compound 55] here?
Its LogP is 2.53.

Which LogP does the source give for `Cc1nn(C)cc1C(=O)N(C1CC1)C(C)c1ncc(C(F)(F)F)cc1Cl` (centres unmarked) [Compound 56] here?
The LogP was 2.79.

Which LogP does the source give for `Cn1ncc(C(=O)N(Cc2ncc(C(F)(F)F)cc2Cl)C2CC2)c1Cl` [Compound 57] here?
Its LogP is 3.92.

For `CCn1nc(C)c(C(=O)N(Cc2ncc(C(F)(F)F)cc2Cl)C2CC2)c1F` [Compound 58], which LogP is on record?
The LogP was 3.15.

For `CCc1nn(C)c(F)c1C(=O)N(Cc1ncc(C(F)(F)F)cc1Cl)C1CC1` [Compound 59], which LogP is on record?
Its LogP is 3.11.

With `CCOc1nn(C)cc1C(=O)N(Cc1ncc(C(F)(F)F)cc1Cl)C1CC1` [Compound 60] as the compound, how does the LogP read?
The LogP was 2.75.

Which LogP does the source give for `O=C(c1ccnn1-c1ccccc1)N(Cc1ncc(C(F)(F)F)cc1Cl)C1CC1` [Compound 63] here?
Its LogP is 3.55.

With `Cc1cc(C(=O)N(Cc2ncc(C(F)(F)F)cc2Cl)C2CC2)no1` [Compound 64] as the compound, how does the LogP read?
The LogP was 3.32.

Which LogP does the source give for `Cc1cc(C(=O)N(C2CC2)C(C)c2ncc(C(F)(F)F)cc2Cl)no1` (centres unmarked) [Compound 65] here?
The LogP was 3.63.

Which LogP does the source give for `Cc1noc(C)c1C(=O)N(Cc1ncc(C(F)(F)F)cc1Cl)C1CC1` [Compound 68] here?
Its LogP is 3.

For `Cc1onc(-c2ccc(Cl)cc2)c1C(=O)N(Cc1ncc(C(F)(F)F)cc1Cl)C1CC1` [Compound 69], which LogP is on record?
Its LogP is 4.48.

For `O=C(c1ccno1)N(Cc1ncc(C(F)(F)F)cc1Cl)C1CC1` [Compound 71], which LogP is on record?
Its LogP is 3.72.

With `Cn1cc(C(=O)N(Cc2ncc(C(F)(F)F)cc2Cl)C2CCCC2)c(C(F)F)n1` [Compound 79] as the compound, how does the LogP read?
Its LogP is 3.68.

For `COc1nn(C)cc1C(=O)N(Cc1ncc(C(F)(F)F)cc1Cl)C1CCCC1` [Compound 80], which LogP is on record?
The LogP was 3.32.

With `Cc1nc(C(F)F)c(C(=O)N(Cc2ncc(C(F)(F)F)cc2Cl)C2CCCC2)s1` [Compound 81] as the compound, how does the LogP read?
The LogP was 4.25.

Which LogP does the source give for `Cn1cc(C(=O)N(Cc2ncc(C(F)(F)F)cc2Cl)C2CCCC2)c(C(F)(F)F)c1` [Compound 82] here?
Its LogP is 4.15.

Which LogP does the source give for `Cc1cc(C(=O)N(Cc2ncc(C(F)(F)F)cc2Cl)C2CC(C)CC(C)(C)C2)c(C)o1` (centres unmarked) [Compound 83] here?
The LogP was 5.9.
